# Test results published in US7018614B2, “Stabilization of radiopharmaceuticals labeled with 18-F” (Eastern Isotopes, Inc., priority 2002, dated 2006).
# Experiment: Stability of FDG solution against radiolysis: Radio Chemical Purity (RCP) by TLC after storage
# Format: physicochemical
# Protocol: In all experiments, the RCP was determined using a standard Thin Layer Chromatography (TLC) method using 10 cm silica-coated glass plates supplied by Alltech (Deerfield, Ill.). A 95:5 mixture of acetonitrile and water was used as a mobile phase and a TLC plate scanner supplied by Bioscan (Washington, D.C.) was used to measure the radioactivity distribution on the plate. In most cases, the sample size was less than 1 μl.
# […] It should be noted, however, that most of the radiolysis takes place in the first 3–6 hours due to the fact that the radioactivity concentration decreases exponentially over time with a half-life of 1.82 hours. After 6 hours, only about 10% of the radioactivity remains and is probably not sufficient to cause any significant decomposition of the product.
# In this experiment, the final product was prepared with an initial activity concentration of 10.8 GBq/ml (292 mCi/ml). […] Samples were kept in tightly sealed vials identical to those used for storage and delivery of FDG to customers. […]
# It was added in an amount calculated to result, after dilution with water, in about a 0.05% concentration in the final product.
# Samples 1, 2, and 3, each of 2 ml, were taken from the final product. To see if storage conditions affected the results, samples 1 and 2 were stored in vials while sample 3 was stored in a syringe identical to those that are used to deliver FDG to users. […]
substance,measurement,setting,value
[^18F] 2-Fluoro-2-Deoxy-D-glucose [FDG],RCP after decline as a result of radiolysis,"over a period of less than 12 hours, high activity concentration",less than 90%
same,RCP at the end of production,"typical value, end of production",98–100%
